“And” between values parts separate entries of the source, which are not always exact repeats. Equal values may be shown once. Blank lines part the entries; values can stand above or below the compound they belong to.
What was measured:
IP3R1 = molecular target: T1, IP3R1 (Rattus norvegicus, UniProt P29994); assay: Nuclear patch-clamp recording from excised nuclear patches of DT40-IP3R1 cells; type: biochemical, mammalian
T1 construct: expressed in transfected cells; host or cells: Gallus gallus DT40 cells without native IP3Rs, stably transfected
Protocol: The methods used for patch-clamp recording from patches excised from the outer nuclear envelope of DT40-IP3R1 cells, with K^+ as charge-carrier and using QuB ([Qin, 2004]) for analysis of currents, were as described previously ([Taufiq-Ur-Rahman et al., 2009]; [Rossi et al., 2009]). It typically took 30-45 s to establish a recording, and Po was then stable throughout recordings that typically lasted up to 8-10 mins.

[1] = molecular target: T2, NT (residues 1-604 of IP3R1) (Rattus norvegicus, UniProt P29994); assay: Equilibrium-competition [3H]IP3 binding to the NT fragment in TEM; details: [3H]IP3 0.75 nM, read-out: NT, KD
T2 construct: Residues 1-604 of rat IP3R1 (NT) in pTrcHisA plasmid; His6 (N, cleaved yes); made in house; host or cells: E. coli (bacterial lysate used in the assay)
Protocol: (§1) IP3R1, which accounts for ∼99% of IP3Rs in cerebellum ([Wojcikiewicz, 1995]), was purified from cerebella of adult Wistar rats using heparin-affinity chromatography ([Rossi et al., 2009]). The purified protein (10 μg/mL) was stored at −80°C in 500 mM NaCl, 50 mM Tris, 10% glycerol, 1 mM 2-mercaptoethanol, 1 mM benzamidine, 1 mM EGTA, 50 mM Tris, 1% CHAPS, pH 8.0. N-terminal fragments of IP3R1 (IBC, residues 224-604; NT, residues 1-604) were expressed as N-terminally tagged His6-fusion proteins in E. coli and cleaved from the tag with thrombin ([Rossi et al., 2009]). […] Bound and free ligand were separated by centrifugation (4°C, 5 min, 14,000 × g).
(§2) For equilibrium binding and concentration-effect relationships, results from each experiment were fitted to Hill equations (PRISM) from which pIC50 (-log of half-maximal inhibitory concentration) or pEC50 (-log of half-maximally effective concentration) values were determined. KDligand was calculated from: KDligand = […] . In functional assays, dose ratios (DR) were used to calculate antagonist affinities ([Arunlakshana and Schild, 1959]): KDantagonist = [antagonist]/(DR-1).

[2] = molecular target: T3, IBC (residues 224-604 of IP3R1) (Rattus norvegicus, UniProt P29994); assay: Equilibrium-competition [3H]IP3 binding to the IBC fragment in TEM; details: read-out: IBC, KD
T3 construct: Residues 224-604 of rat IP3R1 (IBC) in pTrcHisA plasmid; His6 (N, cleaved yes); made in house; host or cells: E. coli (bacterial lysate used in the assay)
Protocol: as §1, §2

[3] = molecular target: T4, IP3R1 (cerebellar membranes) (Rattus norvegicus, UniProt P29994); assay: Equilibrium-competition [3H]IP3 binding to cerebellar membranes in CLM (conditions mimicking functional assays)
T4 construct: membranes from cerebella of adult Wistar rats; from tissue; host or cells: cerebellar membranes of adult Wistar rats
Protocol: Bound and free ligand were separated by centrifugation (22°C, 5 min, 14,000 × g).
as §2

IP3R1 (DT40-IP3R1 cells) = molecular target: T5, IP3R1 (DT40-IP3R1 cells) (Rattus norvegicus, UniProt P29994); assay: Ca2+ release from permeabilized DT40-IP3R1 cells (Mag-fluo 4); type: cell-based
T5 construct: expressed in transfected cells; host or cells: Gallus gallus DT40 cells without native IP3Rs, stably transfected
Protocol: (§3) Incubation of cells with the acetoxymethylester (AM) of Mag-fluo 4 traps low-affinity forms of the indicator ( KdCa = 1.15 mM measured in situ) within the ER. Fluorescence, which is approximately linearly related to ER free [Ca^2+] (since [Ca^2+]ER < KdCa ), can then be used, without further calibration, to reliably report free [Ca^2+] within the ER lumen ([Rossi and Taylor, 2020]). The ER of DT40 or HEK293 cells was loaded with indicator by incubating cells with Mag-fluo 4 AM (20 μM, 60 min, 22°C) in HEPES-buffered saline (HBS: 135 mM NaCl, 5.9 mM KCl, 11.6 mM HEPES, 1.5 mM CaCl2, 11.5 mM glucose, 1.2 mM MgCl2, pH 7.3) as described ([Rossi et al., 2009]). After washing and permeabilization with saponin (10 μg/mL, 37°C, 2-3 min) in Ca^2+-free cytosol-like medium (Ca^2+-free CLM), cells were centrifuged (650 × g, 2 min) and resuspended in Mg^2+-free CLM supplemented with CaCl2 to give a final free [Ca^2+] of 220 nM after addition of 1.5 mM MgATP. Ca^2+-free CLM comprised: 20 mM NaCl, 140 mM KCl, 1 mM EGTA, 20 mM PIPES, 2 mM MgCl2, pH 7.0. Cells (4 × 10^5 cells/well) were attached to poly-L-lysine-coated 96-well black-walled plates (Greiner Bio-One, Stonehouse, UK), and fluorescence (excitation and emission at 485 nm and 520 nm, respectively) was recorded at intervals of 1.44 s using a FlexStation III plate-reader (Molecular Devices, Sunnyvale, CA, USA). MgATP (1.5 mM) was added to initiate Ca^2+ uptake, and when the ER had loaded to steady state with Ca^2+ (∼150 s), ligands were added. Responses to the ligands show ER Ca^2+ contents as either time courses or, in summary results, as the Ca^2+ content recorded 20 s after addition of the stimulus. The distribution of samples across 96-well plates was varied between experiments to avoid any systematic ‘position-related’ artifacts. HEK-G-CEPIA1er cells were permeabilized and assayed as described for Mag-fluo 4-loaded cells.
as §2

[4] = test system: IP3Rs (wild-type HEK cells); assay: Ca2+ release from permeabilized wild-type HEK cells; type: cell-based, Homo sapiens; details: 20 s after addition
Protocol: as §3, §2

IP3R1 (HEK-IP3R1 cells) = molecular target: T6, IP3R1 (HEK-IP3R1 cells) (Rattus norvegicus, UniProt P29994); assay: Ca2+ release from permeabilized HEK-IP3R1 cells; type: cell-based; details: at the concentrations used (heparin 10 mg/mL, dequalinium 50 μM, 2-APB 125 μM), permeabilized HEK-IP3R1 cells
T6 construct: expressed in transfected cells
Protocol: Fluorescence, which is approximately linearly related to ER free [Ca^2+] […] Ca^2+-free CLM comprised: 20 mM NaCl, 140 mM KCl, 1 mM EGTA, 20 mM PIPES, 2 mM MgCl2, pH 7.0. […] MgATP (1.5 mM) was added to initiate Ca^2+ uptake, and when the ER had loaded to steady state with Ca^2+ (∼150 s), ligands were added. Responses to the ligands show ER Ca^2+ contents as either time courses or, in summary results, as the Ca^2+ content recorded 20 s after addition of the stimulus. The distribution of samples across 96-well plates was varied between experiments to avoid any systematic ‘position-related’ artifacts. HEK-G-CEPIA1er cells were permeabilized and assayed as described for Mag-fluo 4-loaded cells.
For equilibrium binding and concentration-effect relationships, results from each experiment were fitted to Hill equations (PRISM) from which pIC50 (-log of half-maximal inhibitory concentration) or pEC50 (-log of half-maximally effective concentration) values were determined.

T5 sequence (P29994 1-2735 isoform P29994-2): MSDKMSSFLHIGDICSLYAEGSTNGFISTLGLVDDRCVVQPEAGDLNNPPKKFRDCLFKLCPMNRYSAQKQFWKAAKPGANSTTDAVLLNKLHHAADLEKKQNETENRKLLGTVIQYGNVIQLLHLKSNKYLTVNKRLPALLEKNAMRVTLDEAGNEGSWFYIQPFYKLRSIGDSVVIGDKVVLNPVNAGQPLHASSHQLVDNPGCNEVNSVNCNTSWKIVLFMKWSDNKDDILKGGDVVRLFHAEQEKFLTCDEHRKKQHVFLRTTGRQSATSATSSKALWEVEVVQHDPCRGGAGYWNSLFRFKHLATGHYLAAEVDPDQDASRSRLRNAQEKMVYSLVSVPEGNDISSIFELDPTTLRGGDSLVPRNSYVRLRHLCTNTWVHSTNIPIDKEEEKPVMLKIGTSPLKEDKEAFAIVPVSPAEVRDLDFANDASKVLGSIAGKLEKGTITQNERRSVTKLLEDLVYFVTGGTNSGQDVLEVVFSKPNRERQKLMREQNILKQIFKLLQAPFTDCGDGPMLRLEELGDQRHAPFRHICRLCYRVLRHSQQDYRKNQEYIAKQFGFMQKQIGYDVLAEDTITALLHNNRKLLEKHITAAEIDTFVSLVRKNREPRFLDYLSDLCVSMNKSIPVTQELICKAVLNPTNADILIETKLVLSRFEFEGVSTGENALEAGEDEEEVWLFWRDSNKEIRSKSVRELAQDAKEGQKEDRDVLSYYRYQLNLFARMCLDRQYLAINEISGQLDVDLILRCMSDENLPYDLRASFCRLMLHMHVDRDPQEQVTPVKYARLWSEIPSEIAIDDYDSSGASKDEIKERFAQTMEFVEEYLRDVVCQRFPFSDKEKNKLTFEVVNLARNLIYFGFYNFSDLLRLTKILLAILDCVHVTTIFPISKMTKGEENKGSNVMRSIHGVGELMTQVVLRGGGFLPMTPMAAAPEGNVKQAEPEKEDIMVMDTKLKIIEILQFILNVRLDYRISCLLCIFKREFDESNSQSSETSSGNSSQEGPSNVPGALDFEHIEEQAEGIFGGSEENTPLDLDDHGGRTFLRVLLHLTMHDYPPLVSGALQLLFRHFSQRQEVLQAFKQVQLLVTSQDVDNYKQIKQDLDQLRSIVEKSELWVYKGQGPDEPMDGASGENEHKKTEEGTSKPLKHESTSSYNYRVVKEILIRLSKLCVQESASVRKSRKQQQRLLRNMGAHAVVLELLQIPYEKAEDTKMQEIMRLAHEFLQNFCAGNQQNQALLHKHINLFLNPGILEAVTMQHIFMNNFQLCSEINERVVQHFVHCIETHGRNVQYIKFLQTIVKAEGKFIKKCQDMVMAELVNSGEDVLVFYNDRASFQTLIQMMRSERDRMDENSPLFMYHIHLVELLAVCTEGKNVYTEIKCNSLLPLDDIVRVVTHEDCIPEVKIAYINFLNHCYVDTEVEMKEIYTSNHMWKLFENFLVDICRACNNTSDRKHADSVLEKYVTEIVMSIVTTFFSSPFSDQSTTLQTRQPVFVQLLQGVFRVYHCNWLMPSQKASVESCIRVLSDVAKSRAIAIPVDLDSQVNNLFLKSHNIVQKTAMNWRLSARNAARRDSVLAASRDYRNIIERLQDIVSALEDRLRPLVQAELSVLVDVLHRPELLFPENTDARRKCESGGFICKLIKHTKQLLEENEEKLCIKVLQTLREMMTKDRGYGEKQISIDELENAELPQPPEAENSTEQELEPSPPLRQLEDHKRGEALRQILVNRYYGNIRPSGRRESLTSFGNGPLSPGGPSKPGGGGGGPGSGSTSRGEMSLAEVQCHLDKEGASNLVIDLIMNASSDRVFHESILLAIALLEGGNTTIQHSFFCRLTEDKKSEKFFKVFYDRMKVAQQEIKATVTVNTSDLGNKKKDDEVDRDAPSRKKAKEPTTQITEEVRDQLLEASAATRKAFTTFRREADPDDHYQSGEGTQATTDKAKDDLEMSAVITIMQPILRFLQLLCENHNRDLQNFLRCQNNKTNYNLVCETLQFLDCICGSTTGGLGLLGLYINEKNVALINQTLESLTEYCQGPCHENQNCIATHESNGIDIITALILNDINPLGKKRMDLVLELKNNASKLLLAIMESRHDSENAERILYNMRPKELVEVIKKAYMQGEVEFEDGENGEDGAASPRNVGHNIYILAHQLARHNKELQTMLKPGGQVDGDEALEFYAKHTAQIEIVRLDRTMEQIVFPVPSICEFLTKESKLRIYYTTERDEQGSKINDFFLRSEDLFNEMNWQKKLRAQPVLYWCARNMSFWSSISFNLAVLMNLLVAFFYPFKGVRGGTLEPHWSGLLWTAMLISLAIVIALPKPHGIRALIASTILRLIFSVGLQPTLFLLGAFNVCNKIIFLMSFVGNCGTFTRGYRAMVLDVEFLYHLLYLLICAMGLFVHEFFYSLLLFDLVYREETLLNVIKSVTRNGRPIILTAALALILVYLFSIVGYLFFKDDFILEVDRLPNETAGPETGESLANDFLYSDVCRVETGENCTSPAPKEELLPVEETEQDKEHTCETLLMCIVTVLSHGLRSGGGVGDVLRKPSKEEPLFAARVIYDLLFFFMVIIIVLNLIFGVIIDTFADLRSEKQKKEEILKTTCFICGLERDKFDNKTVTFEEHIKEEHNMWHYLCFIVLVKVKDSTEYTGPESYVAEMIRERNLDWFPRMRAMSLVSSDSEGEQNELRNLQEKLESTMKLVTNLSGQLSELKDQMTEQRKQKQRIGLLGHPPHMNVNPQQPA
T3 sequence (P29994 224-604): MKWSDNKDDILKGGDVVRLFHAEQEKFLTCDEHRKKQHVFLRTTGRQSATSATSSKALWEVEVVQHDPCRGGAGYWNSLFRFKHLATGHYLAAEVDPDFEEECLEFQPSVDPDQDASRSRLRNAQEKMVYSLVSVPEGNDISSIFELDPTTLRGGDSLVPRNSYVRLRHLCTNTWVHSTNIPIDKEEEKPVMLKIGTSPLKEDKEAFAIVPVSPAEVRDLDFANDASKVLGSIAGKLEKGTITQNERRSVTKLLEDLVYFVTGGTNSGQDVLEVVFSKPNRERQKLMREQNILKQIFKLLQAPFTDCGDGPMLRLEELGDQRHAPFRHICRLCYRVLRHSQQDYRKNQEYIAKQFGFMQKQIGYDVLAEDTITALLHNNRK
T2 sequence (P29994 1-604): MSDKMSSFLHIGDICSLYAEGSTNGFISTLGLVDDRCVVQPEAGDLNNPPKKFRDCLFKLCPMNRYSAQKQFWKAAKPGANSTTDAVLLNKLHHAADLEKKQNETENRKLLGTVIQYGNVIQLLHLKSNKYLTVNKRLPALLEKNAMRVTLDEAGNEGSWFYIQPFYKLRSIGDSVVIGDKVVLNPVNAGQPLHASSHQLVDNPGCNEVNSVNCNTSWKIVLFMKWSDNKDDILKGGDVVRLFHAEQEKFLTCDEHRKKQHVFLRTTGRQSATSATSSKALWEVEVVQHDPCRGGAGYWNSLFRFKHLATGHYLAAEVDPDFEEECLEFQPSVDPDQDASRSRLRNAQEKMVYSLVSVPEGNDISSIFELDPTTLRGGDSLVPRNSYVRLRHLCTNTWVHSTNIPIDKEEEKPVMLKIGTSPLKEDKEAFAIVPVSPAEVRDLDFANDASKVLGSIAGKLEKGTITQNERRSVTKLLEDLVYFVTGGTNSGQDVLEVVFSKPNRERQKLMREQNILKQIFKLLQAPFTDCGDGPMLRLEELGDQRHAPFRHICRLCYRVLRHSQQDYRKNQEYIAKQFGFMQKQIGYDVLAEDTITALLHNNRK

decrease in τo relative to IP3 (fold) (IP3R1): ~2 fold
maximal NPo relative to IP3 (fold less) (IP3R1): 40 fold
τo, mean channel open time (IP3R1; 10 µM ligand): 4.4 ± 0.20 ms
NPo (channel activity) (IP3R1; 10 µM ligand in pipette, +40 mV, K+ charge carrier, mean ± SEM): 0.012 ± 0.003
γK, single-channel K+ conductance (IP3R1; 10 µM ligand, from current-voltage relationships): 217 ± 4 pS
Kd [1]: 2.32 nM
Kd [2]: 0.44 nM
Hill coefficient (h) of binding ([3]; cerebellar membranes, CLM at 20°C): 2.0 ± 0.7
Kd ([3]; cerebellar membranes, CLM, conditions that mimic functional assays): 549 nM
KD relative to KD for IP3 (fold lower) ([3]; conditions that mimic functional assays): 1.5 fold
ECI50/KD ratio relative to IP3 (fold greater) (IP3R1 (DT40-IP3R1 cells)): 41 fold
Ca2+ release evoked by 2 (%) (IP3R1 (DT40-IP3R1 cells); 2 at 1 µM, 30 s, permeabilized DT40-IP3R1 cells): 31% ± 7% and 31 ± 7%
Ca2+ stores released by a maximal concentration (IP3R1 (DT40-IP3R1 cells); 2 at 30 μM, determined at 150 s, permeabilized DT40-IP3R1 cells): 52% ± 3%
Kd (IP3R1 (DT40-IP3R1 cells); DT40-IP3R1 cells, read-out: KD derived from functional assays): ~450 nM
pKD-pECI50 (IP3R1 (DT40-IP3R1 cells); KD for IP3R1 in TEM, ECI50 in DT40-IP3R1 cells, mean ± SEM): 2.15 ± 0.15
Kb (IP3R1 (DT40-IP3R1 cells); functional analysis, IP3-evoked Ca2+ release ± 2 (1 µM), DT40-IP3R1 cells, read-out: KD determined from dose-ratio analysis, KD = [2]/(DR-1)): 426 nM
Ca2+ release, Release (maximal) (IP3R1 (DT40-IP3R1 cells); permeabilized DT40-IP3R1 cells, determined after 20 s, mean ± SEM): 51.9 ± 0.7%
EC50 (IP3R1 (DT40-IP3R1 cells); permeabilized DT40-IP3R1 cells, determined after 20 s, read-out: Ca2+ release, EC50): 479 nM
SMILES: O=C(NCCCN(CCCCN(CCCNC(=O)OCc1ccccc1)C(=O)OCc1ccccc1)C(=O)OCc1ccccc1)NCCO[C@@H]1[C@H](O)[C@@H](OP(=O)(O)O)[C@H](OP(=O)(O)O)[C@@H](O)[C@@H]1OP(=O)(O)O [Compound 2, 2-O-(1,5,10-tris(benzyloxycarbonyl)-15-oxo-1,5,10,14,16-pentaazaoctadecan-18-yl)-1D-myo-inositol 1,4,5-trisphosphate]
Ca2+ release (%) ([4]; maximal): 51 ± 7%
pEC50 ([4]; mean ± SEM): 6.09 ± 0.22

block of IP3-evoked Ca2+ release (IP3R1 (HEK-IP3R1 cells)): partially
SMILES: NCCOB(c1ccccc1)c1ccccc1 [Compound 2-APB, 2-aminoethoxydiphenyl borate]

block of IP3-evoked Ca2+ release (IP3R1 (HEK-IP3R1 cells)): completely
effect on specific [3H]IP3 binding ([3]; dequalinium 50 μM, [3H]IP3 7.5 nM, cerebellar membranes in CLM at 20°C): No significant difference
SMILES: Cc1cc(N)c2ccccc2[n+]1CCCCCCCCCC[n+]1c(C)cc(N)c2ccccc21 [dequalinium, Dequalinium chloride hydrate]

Source: publication PMC8578705 (Cell Reports, 2021)
